In PubChem BioAssay AID1919015 (Molecular Pharmacology Branch, DTP, NCI, 2023):

Test system: OVCAR-5 complex spheroids with HUVEC/MSC, viability, % test/control
Assay: Anticancer human tumor OVCAR-5 cell line growth inhibition [AhR];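 also: spheroids exposed to compounds for 7 days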;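 as to viability, T/C: 100% = DMSO vehicle control wells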
Conditions: for IC50: curve of first compound; for viability, T/C: stronger effect = lower value
From the text: Multicellular complex tumor spheroid response to aryl hydrocarbon receptor antagonists in combination with a variety of drugs and investigational agents in selected tumor cell lines
The current study was undertaken to assess response to aryl hydrocarbon receptor antagonists in combination with standard-of-care drugs and investigational agents in solid tumor complex spheroid models. Complex spheroids include a stromal component modeled by human endothelial cells (HUVEC) and fibroblasts modeled by human mesenchymal stem cells (MSCs). The concentration ranges selected for each drug and investigational agent were based upon clinically achievable concentrations if the clinical Cmax of the agent was known.
Compounds. The drugs and investigational agents: BAY 2416964 (NSC825713), GNF351 (NSC835774), CH-223191 (NSC835775), CPI-455 (NSC825282), aza-TdCyd (NSC777586), decitabine (NSC127716), belinostat (NSC758774), entinostat (NSC756642), pevonedistat (NSC761192), tazemetostat (NSC777109), talazoparib (NSC765396), olaparib (NSC753686), selinexor (NSC780203), nedisertib (M3814, NSC802822), bortezomib (NSC756655), venetoclax (NSC766270), doxorubicin (NSC123127), elimusertib (BAY189344, NSC800525), ceralasertib (AZD6738, NSC777638), TAK-243 (NSC785004), alisertib (NSC759677), etoposide (NSC141540), topotecan (NSC609699), eribulin (NSC707389), gemcitabine (NSC613327), carboplatin (NSC241240), cisplatin (NSC119875), and SN-38 (NSC673596) were obtained from the National Cancer Institute (NCI) Developmental Therapeutics Program Chemical Repository (32). The FDA-approved anticancer drug set is available from the Developmental Therapeutics Program at https://dtp.cancer.gov/organization/dscb/obtaining/available plates.htm. […] The stock solutions were prepared in dimethyl sulfoxide (DMSO, Sigma-Aldrich, St. Louis, MO, cat. D2650), except for the platinum compounds which were prepared in saline (Quality Biological, Gaithersburg, MD, cat. 114-055-101), at 800-fold the tested concentration and stored at -70 degrees C prior to their use. All drugs and investigational agents were tested over a range starting from a high concentration at or near the clinical Cmax and decreasing in half-log increments. If the clinical Cmax for an agent had not been determined, the highest concentration tested was 10 microM (Table 1).
Cell Culture. All cells were maintained in an incubator at 37 degrees C and 5% CO2 with 95% humidity. The PDC lines were cultured according to standard operating procedures established by the NCI PDMR (https://pdmr.cancer.gov). Briefly, all PDCs were thawed and cultured in Matrigel-coated flasks prepared with a working solution of 1X Ham's F-12 nutrient mix, without supplementation (Invitrogen, Waltham, MA, cat. 11765054), 100 U/mL penicillin-streptomycin (Invitrogen, cat. 15140122), and 2.5% Matrigel (Corning Inc., Corning, NY, cat. 354248) for the first three passages. All PDCs were cultured in complete DMEM/F-12 media containing advanced DMEM/F-12 (Invitrogen, cat. 12634028), 4.9% defined fetal bovine serum, heat inactivated (HyClone Laboratories Inc., Logan, UT, cat. SH30070.03HI), 389 ng/mL hydrocortisone (Sigma-Aldrich, cat. H4001), 9.7 ng/mL human EGF recombinant protein (Invitrogen, cat. PHG0313), 23.4 microg/mL adenine (Sigma-Aldrich, cat. A2786), 97.3 U/mL penicillin-streptomycin (Invitrogen, cat. 15140122), 1.9 mM L-glutamine (Invitrogen, cat. 25030081), and 9.7 microM Y-27632 dihydrochloride (Tocris Bioscience, Bristol, United Kingdom, cat. 1254). The PDCs were cultured in complete DMEM/F12 media without 10 microM Y-27632 dihydrochloride for at least two passages prior to the screen. The established cell lines NCI-H1341 and […] were cultured in DMEM/F-12, HEPES (Invitrogen, cat. 11330032), 5% defined fetal bovine serum (HyClone Laboratories Inc., cat. SH30070.03), ITS premix universal culture supplement [insulin (5 microg/mL), transferrin (5 microg/mL), and selenious acid (5 ng/mL)] […]

[1] = second compound 0.1 µM, first compound 0.0316 µM
[2] = second compound 0.1 µM, first compound 0.1 µM
[3] = second compound 0.1 µM, first compound 0.316 µM
[4] = second compound 0.1 µM, first compound 1 µM
[5] = second compound 0.1 µM, first compound 3.16 µM
[6] = second compound 0.1 µM, first compound 10 µM
[7] = second compound 0.316 µM, first compound 0.0316 µM
[8] = second compound 0.316 µM, first compound 0.1 µM
[9] = second compound 0.316 µM, first compound 0.316 µM
[10] = second compound 0.316 µM, first compound 1 µM
[11] = second compound 0.316 µM, first compound 3.16 µM
[12] = second compound 0.316 µM, first compound 10 µM
[13] = second compound 1 µM, first compound 0.0316 µM
[14] = second compound 1 µM, first compound 0.1 µM
[15] = second compound 1 µM, first compound 0.316 µM
[16] = second compound 1 µM, first compound 1 µM
[17] = second compound 1 µM, first compound 3.16 µM
[18] = second compound 1 µM, first compound 10 µM
[19] = second compound 3.16 µM, first compound 0.0316 µM
[20] = second compound 3.16 µM, first compound 0.1 µM
[21] = second compound 3.16 µM, first compound 0.316 µM
[22] = second compound 3.16 µM, first compound 1 µM
[23] = second compound 3.16 µM, first compound 3.16 µM
[24] = second compound 3.16 µM, first compound 10 µM
[25] = second compound 10 µM, first compound 0.0316 µM
[26] = second compound 10 µM, first compound 0.1 µM
[27] = second compound 10 µM, first compound 0.316 µM
[28] = second compound 10 µM, first compound 1 µM
[29] = second compound 10 µM, first compound 3.16 µM
[30] = second compound 10 µM, first compound 10 µM

| Structure (SMILES) | IC50 (second compound 0.1 µM) [nM] | IC50 (second compound 0.316 µM) [nM] | IC50 (second compound 1 µM) [nM] | IC50 (second compound 3.16 µM) [nM] | IC50 (second compound 10 µM) [nM] | viability, T/C [1] [%] | viability, T/C [2] [%] | viability, T/C [3] [%] | viability, T/C [4] [%] | viability, T/C [5] [%] | viability, T/C [6] [%] | viability, T/C [7] [%] | viability, T/C [8] [%] | viability, T/C [9] [%] | viability, T/C [10] [%] | viability, T/C [11] [%] | viability, T/C [12] [%] | viability, T/C [13] [%] | viability, T/C [14] [%] | viability, T/C [15] [%] | other results |
| --- | --- | --- | --- | --- | --- | --- | --- | --- | --- | --- | --- | --- | --- | --- | --- | --- | --- | --- | --- | --- | --- |
| Nc1ccccc1NC(=O)c1ccc(CNC(=O)OCc2cccnc2)cc1 + CC(CO)NC(=O)c1cc(-c2ccc(Cl)cc2)nn(-c2cnn(C)c2)c1=O | 481 | 514 | 512 | 444 | 397 | 92 | 80.7 | 59.7 | 32.3 | 19.5 | 7.46 | 95.9 | 86.6 | 63.2 | 31 | 18.3 | 7.56 | 95.2 | 85.3 | 63.6 | viability, T/C [16]: 30.9%; viability, T/C [17]: 17.4%; viability, T/C [18]: 7.87%; viability, T/C [19]: 85.9%; viability, T/C [20]: 77.8%; viability, T/C [21]: 59.7%; viability, T/C [22]: 27.9%; viability, T/C [23]: 14.6%; viability, T/C [24]: 6.5%; viability, T/C [25]: 83.9%; viability, T/C [26]: 81.3%; viability, T/C [27]: 55.1%; viability, T/C [28]: 24.6%; viability, T/C [29]: 12.8%; viability, T/C [30]: 4.72% |
| O=C(c1cc(Cc2n[nH]c(=O)c3ccccc23)ccc1F)N1CCN(C(=O)C2CC2)CC1 + CC(CO)NC(=O)c1cc(-c2ccc(Cl)cc2)nn(-c2cnn(C)c2)c1=O | > 10000 | > 10000 | > 10000 | > 10000 | > 10000 | 112 | 106 | 107 | 102 | 102 | 98.3 | 111 | 112 | 108 | 107 | 106 | 102 | 109 | 114 | 115 | viability, T/C [16]: 112%; viability, T/C [17]: 113%; viability, T/C [18]: 107%; viability, T/C [19]: 104%; viability, T/C [20]: 104%; viability, T/C [21]: 102%; viability, T/C [22]: 101%; viability, T/C [23]: 97.5%; viability, T/C [24]: 94.8%; viability, T/C [25]: 99.4%; viability, T/C [26]: 101%; viability, T/C [27]: 96.6%; viability, T/C [28]: 99.4%; viability, T/C [29]: 94.4%; viability, T/C [30]: 90.7% |
